# Where a name gives a salt, the structure may show the parent alone.
# Experiments:
# [1] = as disclosed in CN102924289B; cited from earlier work
stability (impurity by TLC) in words,Structure (SMILES),"stability, compared between hydrochloride salts [1]"
–,"NCCNCCNCCN [TETA·2HCl, trientine dihydrochloride]",worse than that of TETA·4HCl
good enough,"NCCNCCNCCN [TETA·4HCl Form N, trientine tetrahydrochloride]",–
